Assay results taken from the supplement of paper PMC10307832.

How the values were obtained:
Assay in all cases: relative viability (nuclei count vs DMSO), 5 days (fraction); higher = more cells survive
AZ505 + Linsitinib = compound: C1CCC(CC1)N(CCNCCC2=C3C(=C(C=C2)O)NC(=O)CO3)C(=O)CCNCCC4=CC(=C(C=C4)Cl)Cl [AZ505] + C[C@]1(O)C[C@@H](c2nc(-c3ccc4ccc(-c5ccccc5)nc4c3)c3c(N)nccn32)C1 [Linsitinib] (partner 1 µM)
Summary of the method: (§1)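 Dosing by pin tool came one day after lung cancer cell lines were seeded in 1536-well plates, using either one drug or a fixed anchor-drug dose plus five library-drug doses (not always all listed) in √10 steps. After 5 days, nuclei were counted on 4× images. Relative viability is treated-well nuclei count divided by vehicle-well nuclei count, and values are medians of duplicate plates.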

Dactolisib + Crizotinib = compound: Cn1c(=O)n(-c2ccc(C(C)(C)C#N)cc2)c2c3cc(-c4cnc5ccccc5c4)ccc3ncc21 [Dactolisib] + C[C@@H](Oc1cc(-c2cnn(C3CCNCC3)c2)cnc1N)c1c(Cl)ccc(F)c1Cl [Crizotinib] (partner 1 µM)
Summary of the method: as §1

Dactolisib + Pemetrexed = compound: Cn1c(=O)n(-c2ccc(C(C)(C)C#N)cc2)c2c3cc(-c4cnc5ccccc5c4)ccc3ncc21 [Dactolisib] + Nc1nc2[nH]cc(CCc3ccc(C(=O)N[C@@H](CCC(=O)O)C(=O)O)cc3)c2c(=O)[nH]1 [Pemetrexed] (partner 0.2 µM)
Summary of the method: as §1

Dactolisib + Olaparib = compound: Cn1c(=O)n(-c2ccc(C(C)(C)C#N)cc2)c2c3cc(-c4cnc5ccccc5c4)ccc3ncc21 [Dactolisib] + O=C(c1cc(Cc2n[nH]c(=O)c3ccccc23)ccc1F)N1CCN(C(=O)C2CC2)CC1 [Olaparib] (partner 8 µM)
Summary of the method: as §1

HCC-366
relative viability (AZ505 + Linsitinib; first compound 0.08 µM): 0.534
relative viability (AZ505 + Linsitinib; first compound 0.253 µM): 0.552
relative viability (AZ505 + Linsitinib; first compound 0.8 µM): 0.672
relative viability (AZ505 + Linsitinib; first compound 2.53 µM): 0.599
relative viability (AZ505 + Linsitinib; first compound 8 µM): 0.678
relative viability (Dactolisib + Crizotinib; first compound 0.002 µM): 0.409
relative viability (Dactolisib + Crizotinib; first compound 0.006325 µM): 0.574
relative viability (Dactolisib + Crizotinib; first compound 0.02 µM): 0.531
relative viability (Dactolisib + Crizotinib; first compound 0.06325 µM): 0.302
relative viability (Dactolisib + Crizotinib; first compound 0.2 µM): 0.168
relative viability (Dactolisib + Pemetrexed; first compound 0.002 µM): 0.104
relative viability (Dactolisib + Pemetrexed; first compound 0.006325 µM): 0.183
relative viability (Dactolisib + Pemetrexed; first compound 0.02 µM): 0.229
relative viability (Dactolisib + Pemetrexed; first compound 0.06325 µM): 0.173
relative viability (Dactolisib + Pemetrexed; first compound 0.2 µM): 0.147
relative viability (Dactolisib + Olaparib; first compound 0.002 µM): 0.243
relative viability (Dactolisib + Olaparib; first compound 0.006325 µM): 0.356
relative viability (Dactolisib + Olaparib; first compound 0.02 µM): 0.38
relative viability (Dactolisib + Olaparib; first compound 0.06325 µM): 0.166
relative viability (Dactolisib + Olaparib; first compound 0.2 µM): 0.142

BEN
relative viability (AZ505 + Linsitinib; first compound 0.08 µM): 0.735
relative viability (AZ505 + Linsitinib; first compound 0.253 µM): 1.1
relative viability (AZ505 + Linsitinib; first compound 0.8 µM): 0.904
relative viability (AZ505 + Linsitinib; first compound 2.53 µM): 0.891
relative viability (AZ505 + Linsitinib; first compound 8 µM): 1.12
relative viability (Dactolisib + Crizotinib; first compound 0.002 µM): 0.785
relative viability (Dactolisib + Crizotinib; first compound 0.006325 µM): 0.77
relative viability (Dactolisib + Crizotinib; first compound 0.02 µM): 0.859
relative viability (Dactolisib + Crizotinib; first compound 0.06325 µM): 0.467
relative viability (Dactolisib + Crizotinib; first compound 0.2 µM): 0.296
relative viability (Dactolisib + Pemetrexed; first compound 0.002 µM): 0.714
relative viability (Dactolisib + Pemetrexed; first compound 0.006325 µM): 0.757
relative viability (Dactolisib + Pemetrexed; first compound 0.02 µM): 0.603
relative viability (Dactolisib + Pemetrexed; first compound 0.06325 µM): 0.639
relative viability (Dactolisib + Pemetrexed; first compound 0.2 µM): 0.434
relative viability (Dactolisib + Olaparib; first compound 0.002 µM): 0.988
relative viability (Dactolisib + Olaparib; first compound 0.006325 µM): 0.939
relative viability (Dactolisib + Olaparib; first compound 0.02 µM): 1.08
relative viability (Dactolisib + Olaparib; first compound 0.06325 µM): 0.635
relative viability (Dactolisib + Olaparib; first compound 0.2 µM): 0.478

NCI-H23
relative viability (AZ505 + Linsitinib; first compound 0.08 µM): 0.561
relative viability (AZ505 + Linsitinib; first compound 0.8 µM): 0.651
relative viability (AZ505 + Linsitinib; first compound 2.53 µM): 0.554
relative viability (AZ505 + Linsitinib; first compound 8 µM): 0.545
relative viability (Dactolisib + Crizotinib; first compound 0.002 µM): 0.455
relative viability (Dactolisib + Crizotinib; first compound 0.006325 µM): 0.408
relative viability (Dactolisib + Crizotinib; first compound 0.02 µM): 0.614
relative viability (Dactolisib + Crizotinib; first compound 0.06325 µM): 0.357
relative viability (Dactolisib + Crizotinib; first compound 0.2 µM): 0.257
relative viability (Dactolisib + Pemetrexed; first compound 0.002 µM): 0.635
relative viability (Dactolisib + Pemetrexed; first compound 0.006325 µM): 0.635
relative viability (Dactolisib + Pemetrexed; first compound 0.02 µM): 0.563
relative viability (Dactolisib + Pemetrexed; first compound 0.06325 µM): 0.289
relative viability (Dactolisib + Pemetrexed; first compound 0.2 µM): 0.296
relative viability (Dactolisib + Olaparib; first compound 0.002 µM): 0.266
relative viability (Dactolisib + Olaparib; first compound 0.006325 µM): 0.254
relative viability (Dactolisib + Olaparib; first compound 0.02 µM): 0.239
relative viability (Dactolisib + Olaparib; first compound 0.06325 µM): 0.223
relative viability (Dactolisib + Olaparib; first compound 0.2 µM): 0.161

201T
relative viability (AZ505 + Linsitinib; first compound 0.08 µM): 1.03
relative viability (AZ505 + Linsitinib; first compound 0.253 µM): 0.98
relative viability (AZ505 + Linsitinib; first compound 0.8 µM): 0.993
relative viability (AZ505 + Linsitinib; first compound 2.53 µM): 1.01
relative viability (AZ505 + Linsitinib; first compound 8 µM): 0.968
relative viability (Dactolisib + Crizotinib; first compound 0.002 µM): 1.03
relative viability (Dactolisib + Crizotinib; first compound 0.006325 µM): 1.04
relative viability (Dactolisib + Crizotinib; first compound 0.02 µM): 0.998
relative viability (Dactolisib + Crizotinib; first compound 0.06325 µM): 0.977
relative viability (Dactolisib + Crizotinib; first compound 0.2 µM): 0.913
relative viability (Dactolisib + Pemetrexed; first compound 0.002 µM): 0.329
relative viability (Dactolisib + Pemetrexed; first compound 0.006325 µM): 0.295
relative viability (Dactolisib + Pemetrexed; first compound 0.02 µM): 0.292
relative viability (Dactolisib + Pemetrexed; first compound 0.06325 µM): 0.272
relative viability (Dactolisib + Pemetrexed; first compound 0.2 µM): 0.247
relative viability (Dactolisib + Olaparib; first compound 0.002 µM): 0.833
relative viability (Dactolisib + Olaparib; first compound 0.006325 µM): 0.824
relative viability (Dactolisib + Olaparib; first compound 0.02 µM): 0.849
relative viability (Dactolisib + Olaparib; first compound 0.06325 µM): 0.782
relative viability (Dactolisib + Olaparib; first compound 0.2 µM): 0.54

NCI-H460
relative viability (AZ505 + Linsitinib; first compound 0.08 µM): 0.654
relative viability (AZ505 + Linsitinib; first compound 0.253 µM): 0.899
relative viability (AZ505 + Linsitinib; first compound 0.8 µM): 0.674
relative viability (AZ505 + Linsitinib; first compound 2.53 µM): 0.716
relative viability (AZ505 + Linsitinib; first compound 8 µM): 0.817
relative viability (Dactolisib + Crizotinib; first compound 0.002 µM): 1.09
relative viability (Dactolisib + Crizotinib; first compound 0.006325 µM): 0.835
relative viability (Dactolisib + Crizotinib; first compound 0.02 µM): 0.513
relative viability (Dactolisib + Crizotinib; first compound 0.06325 µM): 0.136
relative viability (Dactolisib + Crizotinib; first compound 0.2 µM): 0.0929
relative viability (Dactolisib + Pemetrexed; first compound 0.002 µM): 0.0654
relative viability (Dactolisib + Pemetrexed; first compound 0.006325 µM): 0.0618
relative viability (Dactolisib + Pemetrexed; first compound 0.02 µM): 0.0641
relative viability (Dactolisib + Pemetrexed; first compound 0.06325 µM): 0.0892
relative viability (Dactolisib + Pemetrexed; first compound 0.2 µM): 0.0591
relative viability (Dactolisib + Olaparib; first compound 0.002 µM): 0.256
relative viability (Dactolisib + Olaparib; first compound 0.006325 µM): 0.45
relative viability (Dactolisib + Olaparib; first compound 0.02 µM): 0.423
relative viability (Dactolisib + Olaparib; first compound 0.06325 µM): 0.341
relative viability (Dactolisib + Olaparib; first compound 0.2 µM): 0.335
